Results: PubChem BioAssay (NCI)
Values joined by “and” are separate entries in the source; they are usually repeats but may differ in a detail not shown here. Equal entries are not always repeated.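 Exposure lasted 48 hours, with cells grown in 96-well plates and compounds tested at five concentrations. GI50: concentration for 50% inhibition of growth. Definition used: TGI = concentration required for complete inhibition of growth.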 Where a SMILES comes first, the peptide text is derived from it. [ ]: non-standard residue; d: D form. Aoe = N[C@@H](CCCCCC(=O)[C@@H]1CO1)C(=O)O

Assays:
Experiment in all cases: NCI anticancer screen, dose series, 48 h
[1] = tested on: UACC-62 melanoma
[2] = tested on: OVCAR-4 ovarian
[3] = tested on: NCI-H460 lung
[4] = tested on: OVCAR-5 ovarian
[5] = tested on: A498 renal
[6] = tested on: HCT-15 colon
[7] = tested on: SN12C renal
[8] = tested on: ACHN renal
[9] = tested on: OVCAR-8 ovarian
[10] = tested on: SK-OV-3 ovarian
[11] = tested on: MDA-MB-435
[12] = tested on: PC-3 prostate
[13] = tested on: MOLT-4 leukemia
[14] = tested on: UO-31 renal
[15] = tested on: NCI-H522 lung
[16] = tested on: CCRF-CEM leukemia
[17] = tested on: RXF 393 renal
[18] = tested on: KM12 colon
[19] = tested on: DU-145 prostate
[20] = tested on: TK-10 renal
[21] = tested on: HCT-116 colon
[22] = tested on: SF-268 CNS
[23] = tested on: CAKI-1 renal
[24] = tested on: SF-295 CNS
[25] = tested on: SK-MEL-28 melanoma
[26] = tested on: NCI/ADR-RES ovarian
[27] = tested on: COLO 205 colon
[28] = tested on: T-47D breast
[29] = tested on: NCI-H226 lung
[30] = tested on: MCF7 breast
[31] = tested on: K-562 leukemia
[32] = tested on: NCI-H23 lung
[33] = tested on: IGROV1 ovarian
[34] = tested on: 786-0 renal
[35] = tested on: HCC-2998 colon
[36] = tested on: SK-MEL-5 melanoma
[37] = tested on: OVCAR-3 ovarian
[38] = tested on: HOP-62 NSCLC
[39] = tested on: HS 578T breast
[40] = tested on: LOX IMVI melanoma
[41] = tested on: SR leukemia
[42] = tested on: MALME-3M melanoma
[43] = tested on: A549 NSCLC
[44] = tested on: SK-MEL-2 melanoma
[45] = tested on: RPMI-8226 leukemia
[46] = tested on: SNB-19 CNS
[47] = tested on: HOP-92 NSCLC
[48] = tested on: U251 CNS
[49] = tested on: M14 melanoma
[50] = tested on: UACC-257 melanoma
[51] = tested on: HL-60(TB) leukemia
[52] = tested on: MDA-MB-231 breast
[53] = tested on: SF-539 CNS
[54] = tested on: SNB-75 CNS
[55] = tested on: SW-620 colon
[56] = tested on: EKVX NSCLC
[57] = tested on: HT29 colon

CCCCCCCCCCCCC[C@H](O)C[C@H](O)[C@H](C)N
GI50 [1]: 1.87 µM | TGI [1]: 3.27 µM | GI50 [2]: 2.25 µM | TGI [2]: 5.52 µM | GI50 [3]: 1.63 µM | TGI [3]: 3.87 µM | GI50 [4]: 1.95 µM | TGI [4]: 3.42 µM | GI50 [5]: 6.19 µM | TGI [5]: 47.1 µM | GI50 [6]: 1.65 µM | TGI [6]: 3.11 µM | GI50 [7]: 1.92 µM | TGI [7]: 3.38 µM | GI50 [8]: 1.86 µM | TGI [8]: 3.3 µM | GI50 [9]: 3.49 µM | TGI [9]: > 100 µM | GI50 [10]: 14.6 µM | TGI [10]: 40.9 µM

Cc1ccc2ncnc(N(CC(C)C)CC(C)C)c2c1
GI50 [1]: 14.5 µM | TGI [1]: 32.1 µM | GI50 [11]: 18.5 µM | TGI [11]: 34.7 µM | GI50 [2]: 19 µM | TGI [2]: 52.6 µM | GI50 [3]: 14.5 µM | TGI [3]: 49 µM | GI50 [12]: 11 µM | TGI [12]: 27.8 µM | GI50 [13]: 7.6 µM | TGI [13]: 38.4 µM | GI50 [14]: 22.2 µM | TGI [14]: > 100 µM | GI50 [15]: 18.9 µM | TGI [15]: > 100 µM | GI50 [16]: 6.55 µM | TGI [16]: 41.7 µM | GI50 [17]: 11.5 µM | TGI [17]: 27.7 µM | GI50 [4]: 20.1 µM | TGI [4]: 43.7 µM | GI50 [5]: 13.5 µM | TGI [5]: 28.2 µM | GI50 [18]: 16.4 µM | TGI [18]: 40 µM | GI50 [6]: 17.9 µM | TGI [6]: 34.6 µM | GI50 [19]: 15.5 µM | TGI [19]: 32.4 µM | GI50 [20]: 19.4 µM | TGI [20]: 37.5 µM | TGI [21]: 27.7 µM | GI50 [22]: 16.2 µM | TGI [22]: 37.7 µM | GI50 [23]: 12.8 µM | TGI [23]: 26.6 µM | GI50 [24]: 16.7 µM | TGI [24]: 32.7 µM | GI50 [25]: 19.9 µM | TGI [25]: 42.6 µM | GI50 [26]: 10.4 µM | TGI [26]: 24.6 µM | GI50 [27]: 16.9 µM | TGI [27]: 39.1 µM | GI50 [28]: 20.4 µM | TGI [28]: 89.3 µM | GI50 [29]: 15.2 µM | TGI [29]: 34.8 µM | GI50 [7]: 17.9 µM | TGI [7]: 38.7 µM | GI50 [30]: 21.5 µM | TGI [30]: > 100 µM | GI50 [31]: 3.69 µM | TGI [31]: 21.7 µM | GI50 [32]: 11.1 µM | TGI [32]: 28.5 µM | GI50 [33]: 23.4 µM | TGI [33]: > 100 µM | GI50 [34]: 18.5 µM | TGI [34]: 40 µM | GI50 [35]: 16.2 µM | TGI [35]: 35.7 µM | GI50 [36]: 6.9 µM | TGI [36]: 25.6 µM | GI50 [37]: 16.3 µM | TGI [37]: 31.5 µM | GI50 [8]: 15.3 µM | TGI [8]: 31.5 µM | GI50 [38]: 15.5 µM | TGI [38]: 31.2 µM | GI50 [39]: 17.4 µM | TGI [39]: 44.3 µM | GI50 [9]: 12.1 µM | TGI [9]: 31.9 µM | GI50 [40]: 16.2 µM | TGI [40]: 34.4 µM | GI50 [41]: 7.76 µM | TGI [41]: 26.3 µM | GI50 [42]: 16.8 µM | TGI [42]: 31.7 µM | GI50 [43]: 9.43 µM | TGI [43]: 25.3 µM | GI50 [44]: 61.1 µM | TGI [44]: > 100 µM | GI50 [45]: 1.61 µM | TGI [45]: 5.13 µM | GI50 [46]: 20.5 µM | TGI [46]: 42.9 µM | GI50 [47]: 8.36 µM | TGI [47]: 24 µM | GI50 [10]: 14.2 µM | TGI [10]: 29.7 µM | GI50 [48]: 16.5 µM | TGI [48]: 33.3 µM | GI50 [49]: 14.8 µM | TGI [49]: 30.8 µM

O=C1N[C@@H](Cc2ccccc2)C(=O)N2CCC[C@@H]2C(=O)N[C@@H](CCCCCC(=O)[C@@H]2CO2)C(=O)N[C@H]1Cc1ccccc1 (cyclo(FF[dP][Aoe]))
TGI [29]: > 2.13 µM | GI50 [32]: 0.00426 µM and 0.00689 µM | TGI [32]: 2.12 µM and 0.458 µM | TGI [47]: 1.6 µM | GI50 [50]: 0.000732 µM and 0.00214 µM

CN(Cc1cc(Br)cc(Br)c1O)Cc1cc(Br)cc(Br)c1O
GI50 [1]: 1.8 µM | TGI [1]: 11.8 µM | GI50 [11]: 3.79 µM | TGI [11]: 22.6 µM | GI50 [2]: 1.79 µM | TGI [2]: 18.9 µM | GI50 [3]: 0.557 µM | TGI [3]: 13.2 µM | GI50 [12]: 4.37 µM | TGI [12]: 25 µM | GI50 [13]: 3.31 µM | TGI [13]: 36.3 µM | GI50 [14]: 1.08 µM | TGI [14]: 14.6 µM | GI50 [51]: 1.08 µM | TGI [51]: 10.9 µM | GI50 [52]: 3.26 µM | TGI [52]: 19.6 µM | GI50 [15]: 1.73 µM | TGI [15]: 7.14 µM | GI50 [16]: 1.31 µM | TGI [16]: > 100 µM | GI50 [17]: 2.65 µM | TGI [17]: 15.3 µM | GI50 [4]: 6.13 µM | TGI [4]: 21.9 µM | GI50 [5]: 4.08 µM | TGI [5]: 18.7 µM | GI50 [18]: 3.81 µM | TGI [18]: 16.4 µM | GI50 [6]: 0.558 µM | TGI [6]: 16.9 µM | GI50 [19]: 5.48 µM | TGI [19]: 22.2 µM | GI50 [20]: 4.26 µM | TGI [20]: 20.4 µM | GI50 [21]: 0.812 µM | TGI [21]: 12.3 µM | GI50 [22]: 2.87 µM | TGI [22]: 21.1 µM | GI50 [23]: 0.612 µM | TGI [23]: 12.5 µM | GI50 [53]: 2.61 µM | TGI [53]: 20.2 µM | GI50 [24]: 0.847 µM | TGI [24]: 11.9 µM | GI50 [25]: 10.9 µM | TGI [25]: 24.6 µM | GI50 [26]: 1.83 µM | TGI [26]: 12.6 µM | GI50 [27]: 3.72 µM | TGI [27]: 15.2 µM | GI50 [54]: 12.9 µM | TGI [54]: 49.3 µM | GI50 [28]: 2.27 µM | TGI [28]: 23.6 µM | GI50 [55]: 2.33 µM | TGI [55]: 16.9 µM | GI50 [29]: 4.75 µM | TGI [29]: 19.8 µM | GI50 [7]: 2.5 µM | TGI [7]: 16.7 µM | GI50 [30]: 2.96 µM | TGI [30]: 15 µM | GI50 [31]: 0.603 µM | TGI [31]: 20 µM | GI50 [32]: 3.28 µM | TGI [32]: 22.3 µM | GI50 [33]: 1.56 µM | TGI [33]: 18.1 µM | GI50 [34]: 1.42 µM | TGI [34]: 14.6 µM | GI50 [35]: 3.5 µM | TGI [35]: 17 µM | GI50 [36]: 1.34 µM | TGI [36]: 3.71 µM | GI50 [37]: 1.42 µM | TGI [37]: 11.2 µM | GI50 [8]: 1.63 µM | TGI [8]: 18.9 µM | GI50 [56]: 3.03 µM | TGI [56]: 20.2 µM | GI50 [38]: 1.74 µM | TGI [38]: 18.1 µM | GI50 [39]: 5.24 µM | TGI [39]: 47.7 µM | GI50 [9]: 1.94 µM | TGI [9]: 16.1 µM | GI50 [57]: 6.23 µM | TGI [57]: 19.9 µM | GI50 [40]: 1.14 µM | TGI [40]: 17.4 µM | GI50 [41]: 0.675 µM | TGI [41]: 28.3 µM | GI50 [42]: 3.51 µM | TGI [42]: 22 µM | GI50 [43]: 2.19 µM | TGI [43]: 15.4 µM | GI50 [44]: 2.87 µM | TGI [44]: 11.8 µM | GI50 [45]: 2.77 µM | TGI [45]: 47.9 µM | GI50 [46]: 4.86 µM | TGI [46]: 36 µM | GI50 [47]: 1.42 µM | TGI [47]: 8.87 µM | GI50 [48]: 0.689 µM | TGI [48]: 13.3 µM | GI50 [49]: 1.69 µM | TGI [49]: 15.6 µM | GI50 [50]: 2.44 µM | TGI [50]: 11.5 µM
